According to patent US4918066A, “Substituted 4-benzylpiperazinyl compounds” (Ciba-Geigy Corporation, priority 1989, dated 1990):
Values after ≈ are worked out from the molar mass of the structure shown.

Experiments:
[1] = Pharmacokinetics in rats (Table 1); type: in vivo; details: rat; for half-life: in vivo, read-out: t/2 (halflife of the elimination) (converted); for Cmax: plasma, read-out: Cmax (maximum concentration in the plasma)
Source text: (c) Cmax = maximum concentration in the plasma (1 mcg = 1.10^-5

[2] = system: Mycobacterium tuberculosis TB H3 Rv; test: Activity against Mycobacterium tuberculosis TB H3 Rv, ED50 p.o. (Table 1); type: in vivo; details: TBH3RV, po
[3] = system: Mycobacterium tuberculosis TB H3 Rv; test: Activity against Mycobacterium tuberculosis TB H3 Rv in vitro, MIC (Table 1); type: cell-based; details: TBH3RV, read-out: MIC (minimum inhibitory concentration)
Source text: (a) minimum inhibitory concentration (1 mcg = 1.10^-5 g)

[4] = Pharmacokinetics in mice (Table 1); type: in vivo; details: mouse; for half-life: in vivo, read-out: t/2 (halflife of the elimination) (converted); for Cmax: plasma, read-out: Cmax (maximum concentration in the plasma)
M. intracellular K 653 = test: MIC against atypical Mycobacteria, non-photochromogenic (Table II); type: cell-based; details: read-out: MIC (minimum inhibitory concentration)
Source text: (§1) MIC = minimum inhibitory concentration (1 mcg = 1.10^-5 g)

M. intracellular K 550 = test: as above; type: cell-based; details: read-out: MIC (minimum inhibitory concentration)
Source text: as §1

M. avium K 536 = test: as above; type: cell-based; details: Mycobacterium avium, K536, read-out: MIC (minimum inhibitory concentration)
Source text: as §1

M. intracellular K 551 = test: as above; type: cell-based; details: read-out: MIC (minimum inhibitory concentration)
Source text: as §1

M. intracellular K 181 = test: as above; type: cell-based; details: read-out: MIC (minimum inhibitory concentration)
Source text: as §1

M. intracellular K 546 = test: as above; type: cell-based; details: read-out: MIC (minimum inhibitory concentration)
Source text: as §1

[5] = Retention time in the organism / long-term activity; type: in vivo; details: for activity in respect of pharmacokinetics: vs known 3-piperazinyl-rifamycins; for retention time in the organism: vs rifampicin or compounds 1 to 4 of U.S. Pat. No. 4,005,077
M. kansasii K 367 = test: MIC against atypical Mycobacteria, photochromogenic (Table II); type: cell-based; details: Mycobacterium kansasii, K367, read-out: MIC (minimum inhibitory concentration)
Source text: as §1

atypical Mycobacteria = test: Antimicrobial activity in vitro against atypical Mycobacteria; type: cell-based, Mycobacterium; details: against a number of atypical Mycobacteria; vs rifampicin
Source text: This excellent activity is especially pronounced in group c, i.e. non-photochromogenic micro-organisms, which are among the most dangerous pathogens of AIDS infections.

M. aquae K 1165 = test: MIC against atypical Mycobacteria, scotochromogenic (Table II); type: cell-based; details: read-out: MIC (minimum inhibitory concentration)
Source text: as §1

M. scrofulaceum K 1166 = test: as above; type: cell-based; details: Mycobacterium scrofulaceum, K1166, read-out: MIC (minimum inhibitory concentration)
Source text: as §1

M. xenopei K 716 = test: as above; type: cell-based; details: Mycobacterium xenopi, K716, read-out: MIC (minimum inhibitory concentration)
Source text: as §1

Compound | half-life [1] [h] | Cmax [1] [ng/mL] | ED50 [2] [mg/kg] | MIC [3] [µg/mL] | half-life [4] [h] | Cmax [4] [ng/mL] | MIC (M. intracellular K 653) [µg/mL] | MIC (M. intracellular K 550) [µg/mL] | MIC (M. avium K 536) [µg/mL] | MIC (M. intracellular K 551) [µg/mL] | MIC (M. intracellular K 181) [µg/mL] | MIC (M. intracellular K 546) [µg/mL] | activity in respect of pharmacokinetics [5] | retention time in the organism [5] | MIC (M. kansasii K 367) [µg/mL] | antimicrobial activity in vitro compared with rifampicin (atypical Mycobacteria) | MIC (M. aquae K 1165) [µg/mL] | MIC (M. scrofulaceum K 1166) [µg/mL] | MIC (M. xenopei K 716) [µg/mL]
COC1C=COC2(C)Oc3c(C)c(O)c4c(O)c(c(N5CCN(Cc6ccccc6C)CC5)c(O)c4c3C2=O)NC(=O)C(C)=CC=CC(C)C(O)C(C)C(O)C(C)C(OC(C)=O)C1C (stereo not drawn) [Compound 1, 3-[4-(o-methylbenzyl)-piperazin-1-yl]-rifamycin SV] | 86 | 1320 | 1.4 | 0.001 (≈ 0.00113 µM) | 22.9 | 2690 | – | – | – | – | – | – | – | – | – | – | – | – | –
COC1C=COC2(C)Oc3c(C)c(O)c4c(O)c(c(N5CCN(Cc6c(C)cc(C)cc6C)CC5)c(O)c4c3C2=O)NC(=O)C(C)=CC=CC(C)C(O)C(C)C(O)C(C)C(OC(C)=O)C1C (stereo not drawn) [A, 3-[4-(2,4,6-trimethylbenzyl)-piperazin-1-yl]-rifamycin SV] | ~450 | 1510 | 4 | 0.003 (≈ 0.00328 µM) | 47.4 | 2950 | 0.125 (≈ 0.137 µM) | 0.25 (≈ 0.273 µM) | 0.5 (≈ 0.547 µM) | 0.25 (≈ 0.273 µM) | 0.03 (≈ 0.0328 µM) | 0.125 (≈ 0.137 µM) | superior activity in respect of pharmacokinetics | appreciably longer than that of rifampicin or of compounds 1 to 4 | 0.015 (≈ 0.0164 µM) | several times greater than the antimicrobial activity exhibited by rifampicin | 0.03 (≈ 0.0328 µM) | 0.03 (≈ 0.0328 µM) | 1 (≈ 1.09 µM)
COC1C=COC2(C)Oc3c(C)c(O)c4c(O)c(c(N5CCN(Cc6ccc(C(C)C)cc6)CC5)c(O)c4c3C2=O)NC(=O)C(C)=CC=CC(C)C(O)C(C)C(O)C(C)C(OC(C)=O)C1C (stereo not drawn) [Compound 4, 3-[4-(p-isopropylbenzyl)-piperazin-1-yl]-rifamycin SV] | – | – | 1.5 | 0.003 (≈ 0.00328 µM) | 20.4 | 1810 | – | – | – | – | – | – | – | – | – | – | – | – | –
C=C(C)CN1CCN(c2c3c(O)c4c(O)c(C)c5c(c4c2O)C(=O)C(C)(OC=CC(OC)C(C)C(OC(C)=O)C(C)C(O)C(C)C(O)C(C)C=CC=C(C)C(=O)N3)O5)CC1 (stereo not drawn) [Compound 6] | – | – | 1 | 0.0003 (≈ 0.000359 µM) | 21 | 1400 | – | – | – | – | – | – | – | – | – | – | – | – | –
COC1C=COC2(C)Oc3c(C)c(O)c4c(O)c(c(N5CCN(CC(C)C)CC5)c(O)c4c3C2=O)NC(=O)C(C)=CC=CC(C)C(O)C(C)C(O)C(C)C(OC(C)=O)C1C (stereo not drawn) [Compound 5, 3-(4-isobutylpiperazin-1-yl)-rifamycin SV] | – | – | 1 | 0.0001 (≈ 0.000119 µM) | 12 | 1200 | – | – | – | – | – | – | – | – | – | – | – | – | –
COC1C=COC2(C)Oc3c(C)c(O)c4c(O)c(c(N5CCN(Cc6cccc(C)c6)CC5)c(O)c4c3C2=O)NC(=O)C(C)=CC=CC(C)C(O)C(C)C(O)C(C)C(OC(C)=O)C1C (stereo not drawn) [Compound 2] | – | – | 1.4 | 0.0003 (≈ 0.000339 µM) | 11.9 | 3390 | – | – | – | – | – | – | – | – | – | – | – | – | –
COC1C=COC2(C)Oc3c(C)c(O)c4c(O)c(c(N5CCN(Cc6cccc7ccccc67)CC5)c(O)c4c3C2=O)NC(=O)C(C)=CC=CC(C)C(O)C(C)C(O)C(C)C(OC(C)=O)C1C (stereo not drawn) [B, 3-[4-(1-naphthylmethyl)-piperazin-1-yl]rifamycin SV] | 111 | 1120 | 3 | 0.0003 (≈ 0.000325 µM) | 48.5 | 1880 | 0.25 (≈ 0.271 µM) | 1 (≈ 1.08 µM) | 1 (≈ 1.08 µM) | 1 (≈ 1.08 µM) | 0.125 (≈ 0.136 µM) | 1 (≈ 1.08 µM) | superior activity in respect of pharmacokinetics | appreciably longer than that of rifampicin or of compounds 1 to 4 | 0.015 (≈ 0.0163 µM) | several times greater than the antimicrobial activity exhibited by rifampicin | 0.03 (≈ 0.0325 µM) | 0.06 (≈ 0.0651 µM) | 0.5 (≈ 0.542 µM)
COC1C=COC2(C)Oc3c(C)c(O)c4c(O)c(c(N5CCN(Cc6ccc(C)cc6)CC5)c(O)c4c3C2=O)NC(=O)C(C)=CC=CC(C)C(O)C(C)C(O)C(C)C(OC(C)=O)C1C (stereo not drawn) [Compound 3, 3-[4-(p-methylbenzyl)-piperazin-1-yl]-rifamycin SV] | – | – | 1.2 | 0.0001 (≈ 0.000113 µM) | 11.5 | 2280 | – | – | – | – | – | – | – | – | – | – | – | – | –
CO[C@H]1/C=C/O[C@@]2(C)Oc3c(C)c(O)c4c(O)c(c(/C=N/N5CCN(C)CC5)c(O)c4c3C2=O)NC(=O)/C(C)=C\C=C\[C@H](C)[C@H](O)[C@@H](C)[C@@H](O)[C@@H](C)[C@H](OC(C)=O)[C@@H]1C [Rifampicin] | – | 1390 | 5.9 | 0.003 (≈ 0.00365 µM) | – | 2480 | 2 (≈ 2.43 µM) | 8 (≈ 9.72 µM) | 64 (≈ 77.8 µM) | 1 (≈ 1.22 µM) | 0.5 (≈ 0.608 µM) | 16 (≈ 19.4 µM) | – | – | 0.25 (≈ 0.304 µM) | – | 0.25 (≈ 0.304 µM) | 1 (≈ 1.22 µM) | 1 (≈ 1.22 µM)
